Experiments:
[1] = system: peripheral blood mononuclear cells (PBMCs); assay: Gene expression profiling of PBMCs cultured with prednisolone or DMSO (Affymetrix); type: cell-based, human; conditions: 1 μM prednisolone, 6 hours
Protocol: In order to monitor glucocorticoid-dependent responses in peripheral blood, genes modulated by prednisolone in human PBMCs were identified. PBMCs from 10 independent normal healthy volunteer donors were treated with either DMSO control or 1 μM prednisolone for 6 hours.
Lymphocytes were isolated from the blood of 10 independent donors using Ficoll gradient centrifugation. Cells were cultured at 5 million lymphocytes/well of a 96-well flat-bottom block plate (Qiagen, Hilden, Germany) in 500 μl assay media (RPMI-1640 with GlutaMAX, 10% charcoal-stripped fetal bovine serum; Gibco Laboratories, Gaithersburg, Md., USA). Cells were cultured for 6 hours with either dimethyl sulfoxide (DMSO) vehicle or 1 μM prednisolone. After 6 hours, cells were pelleted and resuspended in 1 ml nucleic acid purification lysis solution (Applied Biosystems, Foster City, Calif., USA) diluted 1:2 with calcium and magnesium-free phosphate-buffered saline (Invitrogen, Carlsbad, Calif., USA). Cells were incubated in lysis buffer for 10 min at room temperature followed by storage at −80° C. RNA was isolated using the Qiagen RNeasy isolation kit according to manufacturer's instructions. […]

whole blood = assay: Whole blood cultured in vitro, GC gene signature (ssGSEA) score; type: cell-based, human
From the text: Many of these genes were known glucocorticoid-regulated genes (Chinenov Y, et. al., BMC Genomics 2014; 15:656). […] Network analysis of the regulated genes indicated enrichment for immune-response pathways. Single-sample gene set enrichment analysis (ssGSEA) algorithm was used to generate a composite score (or gene signature) for enrichment of these genes in the transcriptomes of individual samples (Barbie D A, et. al. Nature 2009; 462:108-12).
For profiling of whole blood, anticoagulant citrate dextrose solution A-containing whole blood from 4 normal healthy volunteers was cultured with either DMSO vehicle, 200 nM prednisolone, 1 μM prednisolone, 5 μM prednisolone, 5 μM GR modulators BMS-791826, or 10 μM BMS-776532 for 5 hours, followed by transfer to a PAXgene tube. Total RNA was isolated, and then treated with DNase I and cleaned up using a Qiagen RNeasy MinElute Cleanup Kit. RNA concentrations were determined using NanoDrop (Thermo Fisher Scientific, Waltham, Mass., USA) and RNA quality was evaluated using the Experion electrophoresis system (Bio-Rad Laboratories, Hercules, Calif., USA). All target labeling reagents were purchased from Affymetrix (West Sacramento, Calif., USA).
Double-stranded cDNAs were synthesized from 1 μg of total RNA through reverse transcription with an oligo-dT primer containing the T7 RNA polymerase promoter and double-strand conversion using the cDNA Synthesis System (Invitrogen, Carlsbad, Calif., USA). Biotin-labeled cRNA was generated from the cDNA and used to probe a Human Genome HT_HG-U133A plate (Affymetrix, Sunnyvale, Calif., USA), consisting of 96 single HG-U133A arrays in a 96-well plate. All cDNA and cRNA target preparation steps were processed on a Caliper GeneChip Array Station from Affymetrix. Array hybridization, washing, and scanning were performed according to the manufacturer's recommendations. […]

[2] = system: GC gene signature in whole blood; assay: In vivo GC gene signature, Prednisoline in Healthy Male Cohort 2; design: species or system human; conditions: normal healthy volunteers, oral, 10 mg prednisolone or 150 or 300 mg BMS-791826, 4 hours post-dosing, versus pre-dose and placebo (FIG. 3A)
Protocol: (§1) Since the glucocorticoid (GC) signature accurately captured glucocorticoid receptor (GR) agonist activity in vitro, the behavior of the GC gene signature in vivo was tested. Normal healthy volunteers (NHV) were dosed with placebo, 10 mg prednisolone, or 150 or 300 mg GR modulator BMS-791826. Blood was drawn before and 4 hours post-dosing, and RNA was analyzed by Affymetrix gene expression profiling. […] To address the kinetics of the GC gene signature response, whole blood RNA profiles from NHVs who were administered different doses of prednisolone was analyzed. […] For all but the highest dose of prednisolone, GC gene signature scores had returned to baseline levels by 8 hours post-dose. The signature score was at baseline levels in all groups by 48 hours post-dosing.
To score an individual sample by the enrichment level of GC gene signatures, we adapted the single-sample gene set enrichment analysis (ssGSEA) algorithm (Barbie D A, et. al., Nature 2009; 462:108-12) to generate a composite score, which was implemented using the Gene Set Variation Analysis package in R (version 3.4.0, Hanzelmann S, et. al., BMC Bioinformatics 2013; 14:7). The algorithm was modified so that enrichment scores fell between −1 and 1, representing the lowest to the highest possible rankings of GC genes in the transcriptome. […]

[3] = system: GC gene signature in whole blood; assay: In vivo GC gene signature kinetics, Prednisoline in Healthy Male Cohort 1; design: species or system human
Protocol: as §1
To score an individual sample by the enrichment level of GC gene signatures, we adapted the single-sample gene set enrichment analysis (ssGSEA) algorithm (Barbie D A, et. al., Nature 2009; 462:108-12) to generate a composite score, which was implemented using the Gene Set Variation Analysis package in R (version 3.4.0, Hanzelmann S, et. al., BMC Bioinformatics 2013; 14:7). The algorithm was modified so that enrichment scores fell between −1 and 1, representing the lowest to the highest possible rankings of GC genes in the transcriptome.
Male normal healthy volunteers were randomly assigned (6 participants/group) to receive daily doses of 5, 10, or 30 mg prednisolone for 7 days. Two participants received placebo. PAXgene tubes were collected before dosing and at 2, 4, 8, 48, 144, and 216 hours post-dose.

[4] = system: glucocorticoid-regulated genes in whole blood; assay: Whole blood induction of single genes, prednisolone versus placebo, Prednisoline in Healthy Male cohort 2; type: in vivo, human
From the text: Further refinement of the 64 member gene signature would facilitate implementation in the clinic. […] The list was further filtered for detectable expression in the abatacept SLE trial. Of the initial 64 genes, 18 (FKBP5, ECHDC3, IL1R2, ZBTB16, IRS2, IRAK3, ACSL1, DUSP1, PHC2, TLR2, TSC22D3, SLA, CRISPLD2, MAN2A2, FAR2, CEBPD, SPTLC2, HSPA6) met these criteria. The top 3 genes (FKBP5, ECHDC3 and IL1R2), top 6 genes (FKBP5, ECHDC3 IL1R2, ZBTB16, IRS2, IRAK3) and top 8 genes (FKBP5, ECHDC3, IL1R2, ZBTB16, IRS2, IRAK3, ACSL1, DUSP1) from the list were then used to calculate ssGSEA scores.
CEL files from the Affymetrix Array Station were processed and normalized using the Robust Multi-Array Average (RMA) algorithm (Gautier I, et. al., Bioinformatics 2004; 20:307-15) using the “Affy” package in R (version 3.2.1; 16) and Bioconductor (Gentleman R C, et. al. Genome Biol. 2004, 5 (10):R80) with custom CDF files from BrainArray (version 18.0.0; Dai M, et. al., Nucleic Acids Res 2005; 33:e175). Differential gene expression analysis was run to compare gene expression levels in prednisolone-treated versus control samples, using a moderated t-test (Ritchie M E, et. al., Nucleic Acids Res 2015; 43:e47) in Array Studio (OmicSoft, Cary, N.C., USA). P values were adjusted using the multiple test correction method which is also called false discovery rate (FDR, Benjamini Y, et. al., J. Royal Statistical Soc., Series B 1995; 57:289).
Male normal healthy volunteers were randomly assigned to receive either a placebo of polyethylene glycol (PEG)-400 solution (4 participants); a single daily oral dose of GR modulator BMS-791826 (150 or 300 mg) as a PEG-400 solution (6 participants/dose); or a single daily dose of 10 mg prednisolone (4 participants) for 3 consecutive days. PAXgene tubes were collected before dosing and at 4 hours post-dose on day 1.

[5] = system: GC gene signature in whole blood; assay: GC gene signature in baseline samples of the abatacept SLE phase II trial by reported prednisone dose; type: in vivo, human; conditions: SLE patients, dose high (>30 mg), medium (10-30 mg), low (<10 mg) (FIG. 4B)
Protocol: To determine if the glucocorticoid signature could differentiate between patients based on treatment status, expression of the signature in cross-sectional cohorts of patients with SLE or RA were analyzed. Relative to either normal healthy controls or patients treated with other standard-of-care medications, the patients with SLE or RA who were prescribed glucocorticoids had elevated signature scores (FIG. 4A). While the glucocorticoid signatures were elevated, there was significant inter-patient variability in the signature scores. Baseline samples from a phase II study of abatacept in SLE was analyzed (Fleishaker D L, et. al., BMC Musculoskelet Disord 2016; 17:29) for expression of the glucocorticoid gene signature (FIG. 4B). […] However, there was again significant inter-patient variability in glucocorticoid gene signature scores in all groups. This could reflect steroid resistance in some patients or compliance issues with some patients.
Baseline PAXgene collections and complete blood counts were obtained from 144 adults with SLE meeting the criteria of a British Isles Lupus Assessment Group (BILAG) score of A or B. The population at baseline consisted of 53% of patients with polyarthritis, 35% with discoid lupus, and 12% with serositis. […]

C[C@]12C=CC(=O)C=C1CC[C@@H]1[C@@H]2[C@@H](O)C[C@@]2(C)[C@H]1CC[C@]2(O)C(=O)CO [prednisolone]
fold change of upregulated genes versus vehicle ([1]; FDR-adjusted P ≤0.05, genes of FIG. 1A): > 2 fold | fold change of downregulated genes versus vehicle ([1]; FDR-adjusted P ≤0.05, genes of FIG. 1B): > 2 fold | glucocorticoid gene signature score, rank order (whole blood; 5 μM prednisolone, 5 μM BMS-791826, 10 μM BMS-776532, 5 hours (FIG. 2E)): prednisolone>BMS-791826>BMS-776532 | ssGSEA score for the upregulated genes (whole blood; whole blood, different concentrations of prednisolone, 5 hours (FIG. 1C)): increased dose dependently | expression of the downregulated genes (ssGSEA score) (whole blood; whole blood, different concentrations of prednisolone, 5 hours (FIG. 1D)): decreased in a dose-dependent manner | GC signature score [2]: significantly elevated | time of peak of GC gene signature score post-dose ([3]; 5, 10 or 30 mg prednisolone): 4 h | time by which GC gene signature scores had returned to baseline ([3]; all but the highest dose of prednisolone): ≤ 8 h | time by which signature score was at baseline levels ([3]; all groups): ≤ 48 h | GC gene signature score, dose dependence ([3]; normal healthy volunteers, 5, 10 or 30 mg prednisolone (FIG. 3B)): increased dose dependently | logFC ACSL1 [4]: 1.43 | logFC CEBPD [4]: 0.86 | logFC CRISPLD2 [4]: 0.94 | logFC DUSP1 [4]: 1.37 | logFC ECHDC3 [4]: 2.34 | logFC FAR2 [4]: 0.88 | logFC FKBP5 [4]: 2.85 | logFC HSPA6 [4]: 0.67 | logFC IRAK3 [4]: 1.45 | logFC IRS2 [4]: 1.75 | logFC MAN2A2 [4]: 0.91 | logFC PHC2 [4]: 1.15 | logFC SLA [4]: 0.98 | logFC SPTLC2 [4]: 0.75 | logFC TLR2 [4]: 1.11 | logFC TSC22D3 [4]: 1.08 | logFC ZBTB16 [4]: 2.04

C[C@]12C=CC(=O)C=C1CC[C@@H]1[C@@H]2C(=O)C[C@@]2(C)[C@H]1CC[C@]2(O)C(=O)CO [prednisone]
glucocorticoid gene signature scores versus reported dose [5]: generally aligned well with reported prednisone dose
